Data published in patent US12448377B2, “Heterocyclic compound” (Takeda Pharmaceutical Company Limited, priority 2019, dated 2025).

Target: T1, human orexin type 2 receptor (Homo sapiens, UniProt O43614)
T1 construct: expressed in transfected cells
T1 sequence (O43614 1-444): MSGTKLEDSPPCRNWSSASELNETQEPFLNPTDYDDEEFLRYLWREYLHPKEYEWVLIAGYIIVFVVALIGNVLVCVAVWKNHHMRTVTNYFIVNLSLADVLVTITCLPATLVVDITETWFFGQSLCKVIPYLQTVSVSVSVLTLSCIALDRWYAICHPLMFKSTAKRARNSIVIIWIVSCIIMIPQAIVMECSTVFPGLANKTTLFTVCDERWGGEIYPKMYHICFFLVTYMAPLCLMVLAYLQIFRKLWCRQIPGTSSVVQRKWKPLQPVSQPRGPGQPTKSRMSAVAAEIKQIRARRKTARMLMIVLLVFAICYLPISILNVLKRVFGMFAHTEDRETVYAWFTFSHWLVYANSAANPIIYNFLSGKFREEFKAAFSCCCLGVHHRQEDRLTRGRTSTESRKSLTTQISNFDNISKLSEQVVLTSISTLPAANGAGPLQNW
Test: Measurement of orexin type 2 receptor agonist activity (calcium fluorescence, CHO cells forcibly expressing human OX2 receptor)
Format: cell-based
Settings: compound at 3 μM, DMSO = 0%, orexin A (human) 10 nM = 100%
Source text: To obtain a cell clone stably expressing human orexin type 2 receptor, human orexin type 2 receptor cDNA was inserted into pcDNA3.1(+) plasmid vector (Invitrogen), and a plasmid DNA for expression of human orexin type 2 receptor (pcDNA3.1(+)/hOX2R) was cloned. The plasmid DNA was introduced into CHO-K1 cell by an electroporation method, and human orexin type 2 receptor-expressing clonal cells were obtained by limiting dilution method using G418 drug resistance as a selection marker.
CHO cells forcibly expressing human OX2 receptor were seeded in each well of 384 well black transparent bottom plate (BD Falcon) at 10,000 cells/well, and cultured for one day in a 5% CO2 incubator at 37° C. After removal of the medium in the cell plate, assay buffer A containing a calcium indicator (HBSS (Thermo Fisher Scientific), 20 mM HEPES (Thermo Fisher Scientific), 0.1% BSA (Sigma-Aldrich), 2.5 μg/mL Fluo-4 AM (DOJINDO Chemical), 0.08% Pluronic F127 (DOJINDO Chemical), 1.25 mM probenecid (DOJINDO Chemical)) was added thereto at 30 μL/well. The plate was stood for 30 min in a 5% CO2 incubator at 37° C., and further stood at room temperature for 30 min. A test compound prepared by diluting with assay buffer B (HBSS, 20 mM HEPES, 0.1% BSA) was added thereto at 10 μL/well, and the fluorescence value was measured by FDSSμCELL (Hamamatsu Photonics K.K.) every one sec for 1 min, and thereafter every two sec for 1 min 40 sec. The activity (%) of the test compound was calculated assuming that variation in the fluorescence value when DMSO was added instead of the test compound was 0%, and variation in the fluorescence value when orexin A (human) (PEPTIDE INSTITUTE, INC.) was added at the final concentration of 10 nM was 100%.

OX2R agonist activity (3 μM, %) | Compound
94% | CCc1ccc2n(c1=O)C(COC1CCC(C)CC1)C(NS(C)(=O)=O)CC2 (racemic) [Example 2, rac-N-[(3S,4R)-7-ethyl-4-({[(1s,4S)-4-methylcyclohexyl]oxy}methyl)-6-oxo-1,3,4,6-tetrahydro-2H-quinolizin-3-yl]methanesulfonamide]
89% | CC1CCC(OCC2C(NS(C)(=O)=O)CCc3cccc(=O)n32)CC1 (racemic) [Example 3, rac-N-[(3S,4R)-4-({[(1s,4S)-4-methylcyclohexyl]oxy}methyl)-6-oxo-1,3,4,6-tetrahydro-2H-quinolizin-3-yl]methanesulfonamide]
58% | COC1CCC(OCC2C(NS(C)(=O)=O)CCc3ccc(C)c(=O)n32)CC1 (racemic) [Example 4, N-[(3SR,4RS)-4-{[(4-methoxycyclohexyl)oxy]methyl}-7-methyl-6-oxo-1,3,4,6-tetrahydro-2H-quinolizin-3-yl]methanesulfonamide]
85% | CCS(=O)(=O)NC1CCc2ccc(C)c(=O)n2C1COC1CCC(C)CC1 (racemic) [Example 7, rac-N-[(3S,4R)-7-methyl-4-({[(1s,4S)-4-methylcyclohexyl]oxy}methyl)-6-oxo-1,3,4,6-tetrahydro-2H-quinolizin-3-yl]ethanesulfonamide]
80% | Cc1ccc2n(c1=O)C(COC1CCC(C)CC1)C(NS(=O)(=O)C1CC1)CC2 (racemic) [Example 8, rac-N-[(3S,4R)-7-methyl-4-({[(1s,4S)-4-methylcyclohexyl]oxy}methyl)-6-oxo-1,3,4,6-tetrahydro-2H-quinolizin-3-yl]cyclopropanesulfonamide]
97% | CCC1CCC(OCC2C(NS(=O)(=O)C3CC3)CCc3ccc(C)c(=O)n32)CC1 (racemic) [Example 10, rac-N-[(3S,4R)-4-({[(1s,4S)-4-ethylcyclohexyl]oxy}methyl)-7-methyl-6-oxo-1,3,4,6-tetrahydro-2H-quinolizin-3-yl]cyclopropanesulfonamide]
100% | CCC1CCC(OCC2C(NS(=O)(=O)CC)CCc3ccc(C)c(=O)n32)CC1 (racemic) [Example 11, rac-N-[(3S,4R)-4-({[(1s,4S)-4-ethylcyclohexyl]oxy}methyl)-7-methyl-6-oxo-1,3,4,6-tetrahydro-2H-quinolizin-3-yl]ethanesulfonamide]
96% | Cc1ccc2n(c1=O)C(COC1CCC(C(C)C)CC1)C(NS(C)(=O)=O)CC2 (racemic) [Example 12, rac-N-[(3S,4R)-7-methyl-6-oxo-4-({[(1s,4S)-4-(propan-2-yl)cyclohexyl]oxy}methyl)-1,3,4,6-tetrahydro-2H-quinolizin-3-yl] methanesulfonamide]
96% | CCS(=O)(=O)NC1CCc2ccc(C)c(=O)n2C1COC1CCC(C(C)C)CC1 (racemic) [Example 13, rac-N-[(3S,4R)-7-methyl-6-oxo-4-({[(1s,4S)-4-(propan-2-yl)cyclohexyl]oxy}methyl)-1,3,4,6-tetrahydro-2H-quinolizin-3-yl]ethanesulfonamide]
100% | Cc1ccc2n(c1=O)C(COC1CCC(C(C)C)CC1)C(NS(=O)(=O)C1CC1)CC2 (racemic) [Example 14, rac-N-[(3S,4R)-7-methyl-6-oxo-4-({[(1s,4S)-4-(propan-2-yl)cyclohexyl]oxy}methyl)-1,3,4,6-tetrahydro-2H-quinolizin-3-yl]cyclopropanesulfonamide]
96% | CCS(=O)(=O)NC1CCc2ccc(C)c(=O)n2C1COC1CCC(c2ccccc2)CC1 (racemic) [Example 15, rac-N-[(3S,4R)-7-methyl-6-oxo-4-({[(1s,4S)-4-phenylcyclohexyl]oxy}methyl)-1,3,4,6-tetrahydro-2H-quinolizin-3-yl]ethanesulfonamide]
91% | Cc1ccc2n(c1=O)C(COC1CCC(c3ccccc3)CC1)C(NS(=O)(=O)C1CC1)CC2 (racemic) [Example 16, rac-N-[(3S,4R)-7-methyl-6-oxo-4-({[(1s,4S)-4-phenylcyclohexyl]oxy}methyl)-1,3,4,6-tetrahydro-2H-quinolizin-3-yl]cyclopropanesulfonamide]
86% | Cc1ccc2n(c1=O)C(COC1CCC(C(C)(C)C)CC1)C(NS(C)(=O)=O)CC2 (racemic) [Example 17, rac-N-[(3S,4R)-4-({[(1s,4S)-4-tert-butylcyclohexyl]oxy}methyl)-7-methyl-6-oxo-1,3,4,6-tetrahydro-2H-quinolizin-3-yl]methanesulfonamide]
96% | CCS(=O)(=O)NC1CCc2ccc(C)c(=O)n2C1COC1CCC(C(C)(C)C)CC1 (racemic) [Example 18, rac-N-[(3S,4R)-4-({[(1s,4S)-4-tert-butylcyclohexyl]oxy}methyl)-7-methyl-6-oxo-1,3,4,6-tetrahydro-2H-quinolizin-3-yl]ethanesulfonamide]
89% | Cc1ccccc1C1CCC(OCC2C(NS(C)(=O)=O)CCc3ccc(C)c(=O)n32)CC1 (racemic) [Example 19, rac-N-[(3S,4R)-7-methyl-4-({[(1s,4S)-4-(2-methylphenyl)cyclohexyl]oxy}methyl)-6-oxo-1,3,4,6-tetrahydro-2H-quinolizin-3-yl]methanesulfonamide]
97% | Cc1ccccc1C1CCC(OCC2C(NS(=O)(=O)C3CC3)CCc3ccc(C)c(=O)n32)CC1 (racemic) [Example 20, rac-N-[(3S,4R)-7-methyl-4-({[(1s,4S)-4-(2-methylphenyl)cyclohexyl]oxy}methyl)-6-oxo-1,3,4,6-tetrahydro-2H-quinolizin-3-yl]cyclopropanesulfonamide]
92% | Cc1cccc(C2CCC(OCC3C(NS(C)(=O)=O)CCc4ccc(C)c(=O)n43)CC2)c1 (racemic) [Example 21, rac-N-[(3S,4R)-7-methyl-4-({[(1s,4S)-4-(3-methylphenyl)cyclohexyl]oxy}methyl)-6-oxo-1,3,4,6-tetrahydro-2H-quinolizin-3-yl]methanesulfonamide]
83% | CCS(=O)(=O)NC1CCc2ccc(C)c(=O)n2C1COC1CCC(c2cccc(C)c2)CC1 (racemic) [Example 22, rac-N-[(3S,4R)-7-methyl-4-({[(1s,4S)-4-(3-methylphenyl)cyclohexyl]oxy}methyl)-6-oxo-1,3,4,6-tetrahydro-2H-quinolizin-3-yl]ethanesulfonamide]
96% | CCS(=O)(=O)NC1CCc2ccc(C)c(=O)n2C1COC1CCC(c2ccccc2C)CC1 (racemic) [Example 23, rac-N-[(3S,4R)-7-methyl-4-({[(1s,4S)-4-(2-methylphenyl)cyclohexyl]oxy}methyl)-6-oxo-1,3,4,6-tetrahydro-2H-quinolizin-3-yl]ethanesulfonamide]
86% | Cc1ccc2n(c1=O)C(COC1CCC(C(C)(C)C)CC1)C(NS(=O)(=O)C1CC1)CC2 (racemic) [Example 24, rac-N-[(3S,4R)-4-({[(1s,4S)-4-tert-butylcyclohexyl]oxy}methyl)-7-methyl-6-oxo-1,3,4,6-tetrahydro-2H-quinolizin-3-yl]cyclopropanesulfonamide]
92% | Cc1cccc(C2CCC(OCC3C(NS(=O)(=O)C4CC4)CCc4ccc(C)c(=O)n43)CC2)c1 (racemic) [Example 25, rac-N-[(3S,4R)-7-methyl-4-({[(1s,4S)-4-(3-methylphenyl)cyclohexyl]oxy}methyl)-6-oxo-1,3,4,6-tetrahydro-2H-quinolizin-3-yl]cyclopropanesulfonamide]
86% | Cc1ccc2n(c1=O)C(COC1CCC(C)CC1)C(NS(=O)(=O)N(C)C)CC2 (racemic) [Example 26, rac-N,N-dimethyl-N′-[(3S,4R)-7-methyl-4-({[(1s,4S)-4-methylcyclohexyl]oxy}methyl)-6-oxo-1,3,4,6-tetrahydro-2H-quinolizin-3-yl]sulfuric diamide]
85% | CCC1CCC(OCC2C(NS(=O)(=O)N(C)C)CCc3ccc(C)c(=O)n32)CC1 (racemic) [Example 27, rac-N′-[(3S,4R)-4-({[(1s,4S)-4-ethylcyclohexyl]oxy}methyl)-7-methyl-6-oxo-1,3,4,6-tetrahydro-2H-quinolizin-3-yl]-N,N-dimethylsulfuric diamide]
